This passage reports inhibition results from patent publication US10266497B2 (ABIDE THERAPEUTICS, INC., priority 2017, dated 2019).

The target of experiment [1] is T1, MAGL (Mus musculus, UniProt O35678).
T1 sequence (O35678 1-303): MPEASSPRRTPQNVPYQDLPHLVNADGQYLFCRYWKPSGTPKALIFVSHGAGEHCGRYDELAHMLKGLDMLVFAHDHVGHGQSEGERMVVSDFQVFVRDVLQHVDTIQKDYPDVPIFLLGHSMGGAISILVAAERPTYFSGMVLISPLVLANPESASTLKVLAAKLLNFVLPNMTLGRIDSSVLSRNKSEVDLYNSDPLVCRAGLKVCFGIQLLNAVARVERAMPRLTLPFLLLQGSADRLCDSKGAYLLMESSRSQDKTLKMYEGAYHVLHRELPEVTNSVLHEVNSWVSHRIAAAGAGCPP
In words: In vitro competitive activity-based protein profiling, MAGL, mouse. As to conditions: read-out: MAGL % inh. 1 μM (mouse).

The target of experiment [2] is T2, MAGL (Homo sapiens, UniProt Q99685).
T2 sequence (Q99685 1-303): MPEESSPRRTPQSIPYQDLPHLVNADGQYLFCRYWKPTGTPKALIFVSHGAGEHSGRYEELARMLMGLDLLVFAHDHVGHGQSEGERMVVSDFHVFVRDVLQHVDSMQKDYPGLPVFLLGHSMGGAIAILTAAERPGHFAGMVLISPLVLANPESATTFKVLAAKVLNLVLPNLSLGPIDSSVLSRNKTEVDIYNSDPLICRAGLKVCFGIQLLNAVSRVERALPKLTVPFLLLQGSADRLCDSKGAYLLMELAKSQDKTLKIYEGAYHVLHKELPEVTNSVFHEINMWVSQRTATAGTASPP
Briefly: In vitro competitive activity-based protein profiling, MAGL, human. As to conditions: read-out: MAGL % inh. 1 μM (human).

As for `O=C(O)c1ccn(C(=O)N2CCN(Cc3cccc(Oc4ncccc4F)c3)CC2)n1` [Example 264, 1-(4-(3-((3-fluoropyridin-2-yl)oxy)benzyl)piper-azine-1-carbonyl)-1H-pyrazole-3-carboxylic acid], the inhibition at 1 µM on MAGL [1] and on MAGL [2] was more than 75% in each case.

With `Cc1c(COC2CCN(C(=O)n3ccc(C(=O)O)n3)CC2)cccc1C(F)(F)F` [Example 235, 1-(4-((2-methyl-3-(trifluoromethyl)benzyl)oxy)piper-idine-1-carbonyl)-1H-pyrazole-3-carboxylic acid], the inhibition at 1 µM at MAGL [1] and at MAGL [2] was more than 75% throughout.

`CCOc1cc(CN2CCC3(CCN(C(=O)n4ccc(C(=O)O)n4)CC3)C2)ccc1Cl` [Example 21, 1-(2-(4-chloro-3-ethoxybenzyl)-2,8-diazaspiro[4.5]decane-8-carbonyl)-1H-pyrazole-3-carboxylic acid]: the inhibition at 1 µM at MAGL [1] and at MAGL [2] was 25 to 50% in each case.

In the case of `O=C(O)c1ccn(C(=O)N2C[C@H]3C[C@H](Oc4cc(F)cc(Cl)c4)C[C@H]3C2)n1` [Example 222, 1-(trans-5-(3-chloro-5-fluorophenoxy)octa-hydrocyclopenta[c]pyrrole-2-carbonyl)-1H-pyrazole-3-carboxylic acid], the inhibition at 1 µM at MAGL [1] and on MAGL [2] was more than 75% each time.

In the case of `C[C@@H]1CN(Cc2ccc(Cl)c(-c3nccs3)c2)CCN1C(=O)n1ccc(C(=O)O)n1` [Example 299, (R)-1-(4-(4-chloro-3-(thiazol-2-yl)benzyl)-2-methylpiperazine-1-carbonyl)-1H-pyrazole-3-carboxylic acid], the inhibition at 1 µM on MAGL [1] and on MAGL [2] was more than 75% throughout.

In the case of `O=C(O)c1ccn(C(=O)N2CCC3(CCN(Cc4cc(Cl)ccc4OC(F)(F)F)C3)CC2)n1` [Example 371, 1-(2-(5-chloro-2-(trifluoromethoxy)benzyl)-2,8-diazaspiro[4.5]decane-8-carbonyl)-1H-pyrazole-3-carboxylic acid], the inhibition at 1 µM on MAGL [1] and on MAGL [2] was more than 75% each time.

As to `O=C(O)c1ccn(C(=O)N2CCC(OCc3cc(N4CCCC4)cc(C(F)(F)F)c3)CC2)n1` [Example 331, 1-(4-((3-(pyrrolidin-1-yl)-5-(trifluoromethyl)benzyl)oxy)piper-idine-1-carbonyl)-1H-pyrazole-3-carboxylic acid], the inhibition at 1 µM on MAGL [1] and on MAGL [2] was more than 75% in each case.

For `O=C(O)c1ccn(C(=O)N2C[C@H]3C[C@H](OCc4cccc(-c5ccccc5)c4)C[C@H]3C2)n1` [Example 278, 1-(trans-5-([1,1′-biphenyl]-3-ylmethoxy)octa-hydrocyclopenta[c]pyrrole-2-carbonyl)-1H-pyrazole-3-carboxylic acid], the inhibition at 1 µM on MAGL [1] and at MAGL [2] was more than 75% each time.

As for `C[C@@H]1CN(Cc2cc(F)cc(Oc3ccccc3Cl)c2)CCN1C(=O)n1ccc(C(=O)O)n1` [Example 350, (R)-1-(4-(3-(2-chlorophenoxy)-5-fluorobenzyl)-2-methylpiperazine-1-carbonyl)-1H-pyrazole-3-carboxylic acid], the inhibition at 1 µM at MAGL [1] and at MAGL [2] was more than 75% each time.

As to `Cc1ccc(C)c(CN2CCC3(CCN(C(=O)n4ccc(C(=O)O)n4)CC3)C2)c1` [Example 223, 1-(2-(2,5-dimethylbenzyl)-2,8-diazaspiro[4.5]decane-8-carbonyl)-1H-pyrazole-3-carboxylic acid], the inhibition at 1 µM on MAGL [1] is 0 to 25%; on MAGL [2] it was more than 75%.

`COc1ccc(Cl)cc1CN1CCC2(CCN(C(=O)n3ccc(C(=O)O)n3)CC2)C1` [Example 282, 1-(2-(5-chloro-2-methoxybenzyl)-2,8-diazaspiro[4.5]decane-8-carbonyl)-1H-pyrazole-3-carboxylic acid]: the inhibition at 1 µM on MAGL [1] is 0 to 25%; on MAGL [2], 50 to 75%.

`O=C(O)c1ccn(C(=O)N2CCC3(CCN(Cc4ccc(Cl)c(N5CC6COCC6C5)c4)C3)CC2)n1` (stereo not shown) [Example 401, 1-(2-(4-chloro-3-(tetrahydro-1H-furo[3,4-c]pyrrol-5(3H)-yl)benzyl)-2,8-diazaspiro[4.5]decane-8-carbonyl)-1H-pyrazole-3-carboxylic acid]: the inhibition at 1 µM is 0 to 25% at MAGL [1] and 25 to 50% at MAGL [2].

Consider `O=C(O)c1nn(C(=O)N2C[C@H]3C[C@H](Oc4cccc(-c5ccccc5)c4)C[C@H]3C2)cc1Cl` [Example 304, 1-(trans-5-([1,1′-biphenyl]-3-yloxy)octahydrocyc-lopenta[c]pyrrole-2-carbonyl)-4-chloro-1H-pyrazole-3-carboxylic acid], for which the inhibition at 1 µM on MAGL [1] and on MAGL [2] was more than 75% each time.

Turning to `Cc1cc(-c2cccc(S(C)(=O)=O)c2)ccc1CN1CCN(C(=O)n2ccc(C(=O)O)n2)[C@H](C)C1` [Example 386, (R)-1-(2-methyl-4-((3-methyl-3′-(methylsulfonyl)-[1,1′-biphenyl]-4-yl)methyl)piperazine-1-carbonyl)-1H-pyrazole-3-carboxylic acid], the inhibition at 1 µM at MAGL [1] is more than 75%; on MAGL [2], 50 to 75%.

Consider `Cc1ccc(COC2CCN(C(=O)n3ccc(C(=O)O)n3)CC2)cc1C(F)(F)F` [Example 236, 1-(4-((4-methyl-3-(trifluoromethyl)benzyl)oxy)piper-idine-1-carbonyl)-1H-pyrazole-3-carboxylic acid], for which the inhibition at 1 µM at MAGL [1] and at MAGL [2] was more than 75% each time.

Turning to `O=C(O)c1ccn(C(=O)N2C[C@H]3C[C@@H](NCc4ccc(Oc5ccc(Cl)cc5)cc4)C[C@H]3C2)n1` [Example 363, 1-(cis-5-((4-(4-chlorophenoxy)benzyl)amino)octa-hydrocyclopenta[c]pyrrole-2-carbonyl)-1H-pyrazole-3-carboxylic acid], the inhibition at 1 µM on MAGL [1] and on MAGL [2] was 0 to 25% in each case.

`C[C@H]1CN(Cc2cccc(Oc3cc(C(F)(F)F)ccn3)c2)CCN1C(=O)n1ccc(C(=O)O)n1` [Example 373, (S)-1-(2-methyl-4-(3-((4-(trifluoromethyl)pyridin-2-yl)oxy)benzyl)piper-azine-1-carbonyl)-1H-pyrazole-3-carboxylic acid]: the inhibition at 1 µM on MAGL [1] and at MAGL [2] was more than 75% throughout.

Turning to `C[C@@H]1CN(Cc2ccc(C(F)(F)F)cc2N2CCCC2)CCN1C(=O)n1ccc(C(N)=O)n1` [Example 325, (R)-1-(2-methyl-4-(2-(pyrrolidin-1-yl)-4-(trifluoromethyl)benzyl)piperazine-1-carbonyl)-1H-pyrazole-3-carboxamide], the inhibition at 1 µM on MAGL [1] and at MAGL [2] was more than 75% each time.

For the molecule `C[C@@H]1CN(Cc2ccc(-c3ccccc3)cc2C(F)(F)F)CCN1C(=O)n1ccc(C(=O)O)n1` [Example 351, (R)-1-(2-methyl-4-((3-(trifluoromethyl)-[1,1′-biphenyl]-4-yl)methyl)piperazine-1-carbonyl)-1H-pyrazole-3-carboxylic acid], the inhibition at 1 µM on MAGL [1] and on MAGL [2] was more than 75% in each case.

For `O=C(O)c1ccn(C(=O)N2C[C@H]3C[C@H](Oc4cccc(-c5ccnnc5)c4)C[C@H]3C2)n1` [Example 248, 1-(trans-5-(3-(pyridazin-4-yl)phenoxy)octa-hydrocyclopenta[c]pyrrole-2-carbonyl)-1H-pyrazole-3-carboxylic acid], the figures for the inhibition at 1 µM on MAGL [1] and on MAGL [2] were 0 to 25% and 25 to 50%, respectively.

With `C[C@@H]1CN(Cc2cccc(Oc3cc(C(F)(F)F)ccn3)c2)CCN1C(=O)n1ccc(C(=O)O)n1` [Example 374, (R)-1-(2-methyl-4-(3-((4-(trifluoromethyl)pyridin-2-yl)oxy)benzyl)piper-azine-1-carbonyl)-1H-pyrazole-3-carboxylic acid], the inhibition at 1 µM on MAGL [1] and on MAGL [2] was more than 75% each time.

With `CN(Cc1ccc(N2CCCC2)c(C(F)(F)F)c1)C1(C)CCN(C(=O)n2ccc(C(=O)O)n2)CC1` [Example 383, 1-(4-methyl-4-(methyl(4-(pyrrolidin-1-yl)-3-(trifluoromethyl)benzyl)amino)piper-idine-1-carbonyl)-1H-pyrazole-3-carboxylic acid], the inhibition at 1 µM on MAGL [1] and on MAGL [2] was more than 75% in each case.

With `O=C(O)c1ccn(C(=O)N2CCC(OCc3ccc(Cl)c(C(F)(F)F)c3)CC2)n1` [Example 276, 1-(4-((4-chloro-3-(trifluoromethyl)benzyl)oxy)piper-idine-1-carbonyl)-1H-pyrazole-3-carboxylic acid], the inhibition at 1 µM on MAGL [1] and at MAGL [2] was more than 75% throughout.
